From patent US20250228239A1, “MOLECULES HAVING PESTICIDAL UTILITY, AND INTERMEDIATES, COMPOSITIONS, AND PROCESSES, RELATED THERETO” (priority 2024, published 2025) come the findings set out here.

Like-named read-outs stand apart in the source and are kept apart here.

Common to all, as to format: in vivo
In assay [1] the test system is Beet Armyworm (Spodoptera exigua, LAPHEG). Briefly: Bioassays on Beet Armyworm (BAW), 128-well diet tray assay. The note with it: Spodoptera exigua. The gist of the method:
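Test molecule was dissolved in 90:10 acetone-water and applied at 50 μg/cm^2 onto artificial diet in eight wells, then dried. Second instar larvae, one to five per well, were added, and trays were kept vented at 25° C. with a 14:10 photoperiod for five to seven days before mortality was recorded.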

For assay [2], the system named is Yellow Fever Mosquito (Aedes aegypti, AEDSAE). As to conditions: for YFM rating: Table ABC / ABC-DP rating. Put shortly:
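Compounds from 4000 ppm DMSO stocks were diluted in 90:10 water/acetone and dispensed into wells, then infested with about 1-day-old larvae in liver-powder water. Covered plates were held at room temperature for 3 days and each well was scored for mortality against a rating scale; six replicate plates per compound.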

Assay [3] concerns Cabbage Looper (Trichoplusia ni, TRIPNI). Briefly: Bioassays on Cabbage Looper (CL), 128-well diet tray assay. The note with it: Trichoplusia ni. Put shortly:
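Percent mortality, averaged across eight replicate wells, after second-instar larvae (1–5 per well) fed for five to seven days on diet dosed at 50 μg/cm^2. Compound was applied in acetone-water 90:10 and dried; trays kept vented at 25° C under 14:10 photoperiod.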

Where [4] appears, read: Beet Armyworm, Table ABC / ABC-DP rating, read-out: BAW rating.
Setting [5] is: Cabbage Looper, Table ABC / ABC-DP rating, read-out: CL rating.
[6] abbreviates: Table ABC: Biological Results, species BAW, read-out: BAW.
The mark [7] stands for this setting: Table ABC: Biological Results, species YFM.
Setting [8] is: Table ABC: Biological Results, species CL, read-out: CL.
Where [9] appears, read: Beet Armyworm, rating class, read-out: BAW.
Setting [10] is: Yellow Fever Mosquito, rating class.
The mark [11] stands for this setting: Cabbage Looper, rating class, read-out: CL.

`O=C(NNc1ccc(F)cc1)c1cc(NC(=O)[C@H]2[C@H](c3cc(Cl)cc(Cl)c3)C2(Cl)Cl)ccc1Cl` (relative stereo) [F2553, trans-2,2-Dichloro-N-(4-chloro-3-(2-(4-fluorophenyl)hydrazine-1-carbonyl)phenyl)-3-(3,5-dichlorophenyl)cyclopropane-1-carboxamide]: the pest or weed control at 50 µg/cm2 in assay [1] (setting [4]) and in assay [3] (setting [5]) was 50 to 100% in each case. The YFM rating result in assay [2] (Yellow Fever Mosquito) was “A (80–100)”.

As to `CC(F)(F)C(=O)Nc1c(F)ccc(NC(=O)c2cc(NC(=O)[C@H]3[C@H](c4ccc(F)c(C(F)(F)F)c4)C3(Cl)Cl)ccc2Cl)c1F` [F1352, 2-Chloro-5-((1R,3R)-2,2-dichloro-3-(4-fluoro-3-(trifluoromethyl)phenyl)cyclopropane-1-carboxamido)-N-(3-(2,2-difluoropropanamido)-2,4-difluorophenyl)benzamide], the pest or weed control at 50 µg/cm2 in assay [1] (setting [6]) and in assay [3] (setting [8]) was 50 to 100% throughout. In assay [2] (setting [7]), the YFM result is “A (80–100)”.

For `COC(C)C(=O)Nc1c(F)ccc(NC(=O)c2cc(NC(=O)[C@H]3[C@H](c4ccc(F)c(C(F)(F)F)c4)C3(Cl)Cl)ccc2Cl)c1F` (stereo partly drawn) [F1712, 2-Chloro-5-((1R,3R)-2,2-dichloro-3-(4-fluoro-3-(trifluoromethyl)phenyl)cyclopropane-1-carboxamido)-N-(2,4-difluoro-3-(2-methoxypropanamido)phenyl)benzamide], the pest or weed control at 50 µg/cm2 in assay [1] (setting [9]) and in assay [3] (setting [11]) was 50 to 100% in each case. Also, in assay [2] (setting [10]), the YFM entry is “A (80–100)”.

As to `CN(NC(=O)c1cc(NC(=O)[C@H]2[C@H](c3ccc(Cl)c(Cl)c3)C2(Cl)Cl)ccc1Cl)c1ccccc1` [F2513, (1R,3R)-2,2-Dichloro-N-(4-chloro-3-(2-methyl-2-phenylhydrazine-1-carbonyl)phenyl)-3-(3,4-dichlorophenyl)cyclopropane-1-carboxamide], the pest or weed control at 50 µg/cm2 in assay [1] (setting [4]) and in assay [3] (setting [5]) was 50 to 100% throughout. The YFM rating result in assay [2] (Yellow Fever Mosquito) is on record as “A (80–100)”.

With `CCCC(=O)Nc1c(F)ccc(NC(=O)c2cc(NC(=O)[C@H]3[C@H](c4cc(C(F)(F)F)cc(C(F)(F)F)c4)C3(Cl)Cl)ccc2Cl)c1F` (relative stereo) [F1806, trans-5-(3-(3,5-bis(Trifluoromethyl)phenyl)-2,2-dichlorocyclopropane-1-carboxamido)-N-(3-butyramido-2,4-difluorophenyl)-2-chlorobenzamide], the pest or weed control at 50 µg/cm2 in assay [1] (setting [4]) and in assay [3] (setting [5]) was 50 to 100% each time. Besides, in assay [2] (Yellow Fever Mosquito), the YFM rating result is on record as “A (80–100)”.

As for `CN(NC(=O)c1cc(NC(=O)[C@H]2[C@H](c3cc(Cl)cc(Cl)c3)C2(Cl)Cl)ccc1Cl)C(=O)C1(C#N)CC1` (relative stereo) [F2525, trans-2,2-Dichloro-N-(4-chloro-3-(2-(1-cyanocyclopropane-1-carbonyl)-2-methylhydrazine-1-carbonyl)phenyl)-3-(3,5-dichlorophenyl)cyclopropane-1-carboxamide], the pest or weed control at 50 µg/cm2 in assay [1] (setting [4]) and in assay [3] (setting [5]) was 50 to 100% throughout. Moreover, in assay [2] (Yellow Fever Mosquito), the YFM rating entry is reported as “A (80–100)”.

`COc1ccc(CNc2ccc(NC(=O)c3cc(NC(=O)[C@H]4[C@H](c5cc(Cl)cc(Cl)c5)C4(Cl)Cl)ccc3Cl)c(C)c2)cc1` (relative stereo) [F1035, trans-2-Chloro-5-(2,2-dichloro-3-(3,5-dichlorophenyl)cyclopropane-1-carboxamido)-N-(4-((4-methoxybenzyl)amino)-2-methylphenyl)benzamide]: the pest or weed control at 50 µg/cm2 in assay [1] (setting [6]) and in assay [3] (setting [8]) was 50 to 100% in each case. In addition, in assay [2] (setting [7]), the YFM result was “A (80–100)”.

`O=C(NCCCNC(=O)C(F)(F)C(F)(F)F)c1cc(NC(=O)[C@H]2[C@H](c3cc(Cl)cc(Cl)c3)C2(Cl)Cl)ccc1Cl` (relative stereo) [F2097, trans-2-Chloro-5-(2,2-dichloro-3-(3,5-dichlorophenyl)cyclopropane-1-carboxamido)-N-(3-(2,2,3,3,3-pentafluoropropanamido)propyl)benzamide]: the pest or weed control at 50 µg/cm2 in assay [1] (setting [4]) and in assay [3] (setting [5]) was 50 to 100% in each case. The YFM rating entry in assay [2] (Yellow Fever Mosquito) is reported as “A (80–100)”.

Regarding `O=C(Nc1c(F)ccc(NC(=O)C(F)F)c1F)c1cc(NC(=O)[C@H]2[C@H](c3ccc(F)c(C(F)(F)F)c3)C2(Cl)Cl)ccc1F` [F1561, 5-((1R,3R)-2,2-Dichloro-3-(4-fluoro-3-(trifluoromethyl)phenyl)cyclopropane-1-carboxamido)-N-(3-(2,2-difluoroacetamido)-2,6-difluorophenyl)-2-fluorobenzamide], the pest or weed control at 50 µg/cm2 in assay [1] (setting [9]) and in assay [3] (setting [11]) was 50 to 100% in each case. For the same compound, the YFM result in assay [2] (setting [10]) is given as “A (80–100)”.

For the compound `Cc1cc(NCc2ccccc2)ccc1NC(=O)c1cc(NC(=O)[C@H]2[C@H](c3cc(Cl)cc(Cl)c3)C2(Cl)Cl)ccc1Cl` (relative stereo) [F1176, trans-N-(4-(Benzylamino)-2-methylphenyl)-2-chloro-5-(2,2-dichloro-3-(3,5-dichlorophenyl)cyclopropane-1-carboxamido)benzamide], the pest or weed control at 50 µg/cm2 in assay [1] (setting [6]) and in assay [3] (setting [8]) was 50 to 100% in each case. Also, the YFM result in assay [2] (setting [7]) was “A (80–100)”.

Turning to `CC(CC(F)(F)F)C(=O)Nc1c(F)ccc(NC(=O)c2cc(NC(=O)[C@H]3[C@H](c4ccc(F)c(Cl)c4)C3(Cl)Cl)ccc2Cl)c1F` (stereo partly drawn) [F1866, 2-Chloro-5-((1R,3R)-2,2-dichloro-3-(3-chloro-4-fluorophenyl)cyclopropane-1-carboxamido)-N-(2,4-difluoro-3-(4,4,4-trifluoro-2-methylbutanamido)phenyl) benzamide], the pest or weed control at 50 µg/cm2 in assay [1] (setting [4]) and in assay [3] (setting [5]) was 50 to 100% in each case. In addition, the YFM rating result in assay [2] (Yellow Fever Mosquito) is “A (80–100)”.

As to `CC(=O)Nc1c(F)ccc(NC(=O)c2cc(NC(=O)[C@H]3[C@H](c4cc(Cl)c(Cl)c(Cl)c4)C3(Cl)Cl)ccc2F)c1F` [F1528, N-(3-Acetamido-2,4-difluorophenyl)-5-((1R,3R)-2,2-dichloro-3-(3,4,5-trichlorophenyl)cyclopropane-1-carboxamido)-2-fluorobenzamide], the pest or weed control at 50 µg/cm2 in assay [1] (setting [9]) and in assay [3] (setting [11]) was 50 to 100% throughout. Further, in assay [2] (setting [10]), the YFM entry is “B (More than 0 – Less than 80)”.

Take `O=C(Nc1ccc(F)c(NC(=O)C2CC2)c1F)c1cc(NC(=O)[C@H]2[C@H](c3ccc(F)c(C(F)(F)F)c3)C2(Cl)Cl)ccc1Cl` [F1264, 2-Chloro-N-(3-(cyclopropanecarboxamido)-2,4-difluorophenyl)-5-((1R,3R)-2,2-dichloro-3-(4-fluoro-3-(trifluoromethyl)phenyl)cyclopropane-1-carboxamido)benzamide]: the pest or weed control at 50 µg/cm2 in assay [1] (setting [6]) and in assay [3] (setting [8]) was 50 to 100% each time. Also, in assay [2] (setting [7]), the YFM result was “A (80–100)”.

Turning to `O=C(Nc1ccc(F)c(NC(=O)C(Cl)Cl)c1F)c1cc(NC(=O)[C@H]2[C@H](c3cc(Cl)c(Cl)c(Cl)c3)C2(Cl)Cl)ccc1Cl` [F1685, 2-Chloro-5-((1R,3R)-2,2-dichloro-3-(3,4,5-trichlorophenyl)cyclopropane-1-carboxamido)-N-(3-(2,2-dichloroacetamido)-2,4-difluorophenyl)benzamide], the pest or weed control at 50 µg/cm2 in assay [1] (setting [9]) and in assay [3] (setting [11]) was 50 to 100% each time. Moreover, in assay [2] (setting [10]), the YFM result was “A (80–100)”.

`C#CC(C)C(=O)N(CC)c1c(F)ccc(NC(=O)c2cc(NC(=O)[C@H]3[C@H](c4ccc(F)c(C(F)(F)F)c4)C3(Cl)Cl)ccc2Cl)c1F` (stereo partly drawn) [F1764]: the pest or weed control at 50 µg/cm2 in assay [1] (setting [9]) and in assay [3] (setting [11]) was 50 to 100% each time. Besides, the YFM result in assay [2] (setting [10]) is “A (80–100)”.

On to `O=C(NNc1ccc(F)cc1F)c1cc(NC(=O)[C@H]2[C@H](c3cc(Cl)cc(Cl)c3)C2(Cl)Cl)ccc1Cl` (relative stereo) [F2559, trans-2,2-Dichloro-N-(4-chloro-3-(2-(2,4-difluorophenyl)hydrazine-1-carbonyl)phenyl)-3-(3,5-dichlorophenyl)cyclopropane-1-carboxamide], for which the pest or weed control at 50 µg/cm2 in assay [1] (setting [4]) and in assay [3] (setting [5]) was 50 to 100% throughout. In addition, the YFM rating result in assay [2] (Yellow Fever Mosquito) was “B (More than 0 – Less than 80)”.

For the compound `Cc1c(N)ccc(NC(=O)c2cc(NC(=O)[C@H]3[C@H](c4cc(Cl)cc(Cl)c4)C3(Cl)Cl)ccc2Cl)c1C` (relative stereo) [F1229, trans-N-(4-amino-2,3-dimethylphenyl)-2-chloro-5-(2,2-dichloro-3-(3,5-dichlorophenyl)cyclopropane-1-carboxamido)benzamide], the pest or weed control at 50 µg/cm2 in assay [1] (setting [6]) and in assay [3] (setting [8]) was 50 to 100% each time. Besides, the YFM entry in assay [2] (setting [7]) is on record as “A (80–100)”.
